In ChEMBL document CHEMBL4311992, “Discovery of 3-(((9H-purin-6-yl)amino)methyl)-4,6-dimethylpyridin-2(1H)-one derivatives as novel tubulin polymerization inhibitors for treatment of cancer” (Eur J Med Chem, 2019):
Active and inactive are the calls of the source. The rule behind the calls is not given here.

Experiments:
[1] = target: Serine/threonine-protein kinase DCLK2 (Homo sapiens) (UniProt Q8N568); experiment: Inhibition of recombinant human DCAMKL2 (376 to end residues) assessed as residual activity at 10 uM using KKLNRTLSFAEPG as substrate measured after 40 mins in presence of [gamma33P]ATP by scintillation counting method
SW-620 [2] = experiment: Induction of apoptosis in human SW620 cells assessed as late apoptotic cells at 50 nM measured after 48 hrs by Annexin V-FITC/propidium iodide staining-based flow cytometry (reference value: 1.8%); format: functional
[3] = target: Receptor-interacting serine/threonine-protein kinase 1 (Homo sapiens) (UniProt Q13546); experiment: Inhibition of human RIPK1 (8 to 322 residues) using myelin basic protein as substrate measured after 120 mins in presence of [gamma33P]ATP by scintillation counting method; parameters: scale not given: the % may be the effect or the level left
[4] = target: Mitogen-activated protein kinase kinase kinase 20 (Homo sapiens) (UniProt Q9NYL2); experiment: Inhibition of recombinant full-length human ZAK assessed as residual activity at 10 uM using MBP as substrate measured after 40 mins in presence of [gamma33P]ATP by scintillation counting method
[5] = target: Dual specificity tyrosine-phosphorylation-regulated kinase 1B (Homo sapiens) (UniProt Q9Y463); experiment: Inhibition of recombinant full-length human DYRK1B assessed as residual activity at 10 uM using RRRFRPASPLRGPPK as substrate measured after 40 mins in presence of [gamma33P]ATP by scintillation counting method
HCT-116 [6] = experiment: Induction of apoptosis in human HCT116 cells assessed as decrease in Bcl2 expression up to 200 nM measured after 48 hrs by Western blot analysis; format: functional, cell-based
[7] = target: Dual specificity tyrosine-phosphorylation-regulated kinase 2 (Homo sapiens) (UniProt Q92630); experiment: Inhibition of recombinant full-length human DYRK2 assessed as residual activity at 10 uM using casein as substrate measured after 40 mins in presence of [gamma33P]ATP by scintillation counting method
HCT-116 [8] = experiment: Antitumor activity against human HCT116 cells xenografted in nude BALB/c mouse assessed as tumor growth inhibition at 80 mg/kg, po administered once daily for 4 weeks measured post-last dose relative to control; format: functional; conditions: HCT-116, po, 672 h, read-out: TGI
[9] = system: Proto-oncogene tyrosine-protein kinase receptor Ret (Homo sapiens), P07949 [V804L]; experiment: Inhibition of human Ret V804L mutant (658 to end residues) using KKKSPGEYVNIEFG as substrate measured after 40 mins in presence of [gamma33P]ATP by scintillation counting method; parameters: scale not given: the % may be the effect or the level left
[10] = target: Leukocyte tyrosine kinase receptor (Homo sapiens) (UniProt P29376); experiment: Inhibition of recombinant human LTK (450 to end residues) assessed as residual activity at 10 uM using GEEPLYWSFPAKKK as substrate measured after 40 mins in presence of [gamma33P]ATP by scintillation counting method
[11] = target: Ephrin type-A receptor 4 (Homo sapiens) (UniProt P54764); experiment: Inhibition of recombinant human EphA4 (601 to 892 residues) assessed as residual activity at 10 uM using poly(Glu, Tyr) 4:1 as substrate measured after 40 mins in presence of [gamma33P]ATP by scintillation counting method
[12] = target: Serine/threonine-protein kinase tousled-like 2 (Homo sapiens) (UniProt Q86UE8); experiment: Inhibition of human TLK2 (387 to end residues) using casein as substrate measured after 40 mins in presence of [gamma33P]ATP by scintillation counting method; parameters: scale not given: the % may be the effect or the level left
HCT-116 [13] = experiment: Induction of apoptosis in human HCT116 cells assessed as late apoptotic cells at 25 nM measured after 48 hrs by Annexin V-FITC/propidium iodide staining-based flow cytometry (reference value: 3.87%); format: functional
HCT-116 [14] = experiment: cells; conditions: Homo sapiens, HCT-116, 72 h
Description: Antiproliferative activity against human HCT116 cells after 72 hrs by MTT assay

Tubulin (Homo sapiens) = Tubulin (Homo sapiens) (UniProt P68371+Q9H4B7+P0DPH7+P68366+Q13509+Q71U36+P04350+Q3ZCM7+P07437+P68363+Q9BQE3+Q6PEY2+Q13885+Q9BVA1+Q9BUF5); experiment: Disruption of microtubule network in human HCT116 cells assessed as microtubule condensation at 50 nM incubated for 18 hrs by FITC/DAPI staining-based confocal microscopic analysis; format: cell-based
[15] = target: Serine-protein kinase ATM (Homo sapiens) (UniProt Q13315); experiment: Inhibition of recombinant full-length human ATM assessed as residual activity at 10 uM using GST-cMyc-p53 as substrate measured after 40 mins by ELISA
[16] = target: CDK17/Cyclin-Y (Homo sapiens) (UniProt Q00537+Q8ND76); experiment: Inhibition of human CDK17/cyclinY assessed as residual activity at 10 uM using PKSPKARKKL as substrate measured after 120 mins in presence of [gamma33P]ATP by scintillation counting method; format: protein-complex assay
[17] = target: Muscle, skeletal receptor tyrosine-protein kinase (Homo sapiens) (UniProt O15146); experiment: Inhibition of recombinant human MuSK (530 to end residues) assessed as residual activity at 10 uM using myelin basic protein as substrate measured after 40 mins in presence of [gamma33P]ATP by scintillation counting method
SW-620 [18] = experiment: Induction of apoptosis in human SW620 cells assessed as increase in cleaved caspase3 expression up to 200 nM measured after 48 hrs by Western blot analysis; format: functional, cell-based
[19] = target: Serine/threonine-protein kinase D3 (Homo sapiens) (UniProt O94806); experiment: Inhibition of recombinant full-length human PKD3 assessed as residual activity at 10 uM using KKLRRTLSVA as substrate measured after 40 mins in presence of [gamma33P]ATP by scintillation counting method
[20] = system: Calcium/calmodulin-dependent protein kinase kinase 2 (Homo sapiens), Q96RR4 [T85S]; experiment: Inhibition of recombinant full-length human CAMKk2 T85S mutant assessed as residual activity at 10 uM using calmodulin as substrate measured after 40 mins in presence of [gamma33P]ATP by scintillation counting method
[21] = target: Dual specificity mitogen-activated protein kinase kinase 3 (Homo sapiens) (UniProt P46734); experiment: Inhibition of human MKK3 assessed as residual activity at 10 uM by radiometric method
[22] = system: Ribosomal protein S6 kinase alpha-1 (Rattus norvegicus), Q63531 [S637N,G697A]; experiment: Inhibition of recombinant full-length rat Rsk1 S637N/G697A mutant assessed as residual activity at 10 uM using KKKNRTLSVA as substrate measured after 40 mins in presence of [gamma33P]ATP by scintillation counting method
[23] = target: Dual specificity tyrosine-phosphorylation-regulated kinase 1A (Homo sapiens) (UniProt Q13627); experiment: Inhibition of recombinant full-length human DYRK1A assessed as residual activity at 10 uM using RRRFRPASPLRGPPK as substrate measured after 40 mins in presence of [gamma33P]ATP by scintillation counting method
[24] = target: Calcium/calmodulin-dependent protein kinase kinase 1 (Homo sapiens) (UniProt Q8N5S9); experiment: Inhibition of recombinant full-length human CAMKk1 assessed as residual activity at 10 uM using calmodulin as substrate measured after 40 mins in presence of [gamma33P]ATP by scintillation counting method
Calcium/calmodulin-dependent protein kinase kinase 1 (Homo sapiens), sequence (Q8N5S9 whole entry, looked up): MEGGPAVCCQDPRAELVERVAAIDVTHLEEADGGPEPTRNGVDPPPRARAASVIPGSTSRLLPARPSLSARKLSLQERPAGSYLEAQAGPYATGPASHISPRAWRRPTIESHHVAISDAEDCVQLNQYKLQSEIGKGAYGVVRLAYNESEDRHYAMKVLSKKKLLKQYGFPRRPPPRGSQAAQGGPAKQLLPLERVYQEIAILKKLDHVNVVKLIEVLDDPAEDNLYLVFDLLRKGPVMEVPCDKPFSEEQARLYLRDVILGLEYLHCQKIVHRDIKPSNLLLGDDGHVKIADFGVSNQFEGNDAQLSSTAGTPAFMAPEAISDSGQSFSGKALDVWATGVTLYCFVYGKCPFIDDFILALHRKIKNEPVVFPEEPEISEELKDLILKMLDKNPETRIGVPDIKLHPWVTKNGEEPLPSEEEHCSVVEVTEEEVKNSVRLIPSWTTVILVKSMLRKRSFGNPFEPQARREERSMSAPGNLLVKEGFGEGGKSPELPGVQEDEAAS

Receptor-interacting serine/threonine-protein kinase 1 (Homo sapiens), sequence (Q13546 whole entry, the tested form may be a part): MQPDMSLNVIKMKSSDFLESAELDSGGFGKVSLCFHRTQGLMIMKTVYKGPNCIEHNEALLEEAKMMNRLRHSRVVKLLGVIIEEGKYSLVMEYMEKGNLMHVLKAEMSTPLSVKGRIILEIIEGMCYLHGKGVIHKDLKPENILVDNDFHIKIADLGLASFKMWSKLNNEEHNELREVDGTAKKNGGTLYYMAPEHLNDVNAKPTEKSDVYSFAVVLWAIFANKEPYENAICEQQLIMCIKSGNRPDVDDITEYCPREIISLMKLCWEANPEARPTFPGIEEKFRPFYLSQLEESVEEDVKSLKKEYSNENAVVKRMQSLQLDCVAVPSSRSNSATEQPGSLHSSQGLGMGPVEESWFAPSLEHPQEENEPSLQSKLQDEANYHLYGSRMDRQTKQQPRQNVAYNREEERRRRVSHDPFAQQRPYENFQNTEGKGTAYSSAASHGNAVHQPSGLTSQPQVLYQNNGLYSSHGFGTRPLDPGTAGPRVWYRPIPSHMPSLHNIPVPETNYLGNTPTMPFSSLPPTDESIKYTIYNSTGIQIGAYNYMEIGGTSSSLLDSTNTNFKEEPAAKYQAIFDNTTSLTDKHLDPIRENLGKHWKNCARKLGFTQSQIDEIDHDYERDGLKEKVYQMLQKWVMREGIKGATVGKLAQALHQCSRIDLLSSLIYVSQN
Serine-protein kinase ATM (Homo sapiens), sequence (Q13315 whole entry): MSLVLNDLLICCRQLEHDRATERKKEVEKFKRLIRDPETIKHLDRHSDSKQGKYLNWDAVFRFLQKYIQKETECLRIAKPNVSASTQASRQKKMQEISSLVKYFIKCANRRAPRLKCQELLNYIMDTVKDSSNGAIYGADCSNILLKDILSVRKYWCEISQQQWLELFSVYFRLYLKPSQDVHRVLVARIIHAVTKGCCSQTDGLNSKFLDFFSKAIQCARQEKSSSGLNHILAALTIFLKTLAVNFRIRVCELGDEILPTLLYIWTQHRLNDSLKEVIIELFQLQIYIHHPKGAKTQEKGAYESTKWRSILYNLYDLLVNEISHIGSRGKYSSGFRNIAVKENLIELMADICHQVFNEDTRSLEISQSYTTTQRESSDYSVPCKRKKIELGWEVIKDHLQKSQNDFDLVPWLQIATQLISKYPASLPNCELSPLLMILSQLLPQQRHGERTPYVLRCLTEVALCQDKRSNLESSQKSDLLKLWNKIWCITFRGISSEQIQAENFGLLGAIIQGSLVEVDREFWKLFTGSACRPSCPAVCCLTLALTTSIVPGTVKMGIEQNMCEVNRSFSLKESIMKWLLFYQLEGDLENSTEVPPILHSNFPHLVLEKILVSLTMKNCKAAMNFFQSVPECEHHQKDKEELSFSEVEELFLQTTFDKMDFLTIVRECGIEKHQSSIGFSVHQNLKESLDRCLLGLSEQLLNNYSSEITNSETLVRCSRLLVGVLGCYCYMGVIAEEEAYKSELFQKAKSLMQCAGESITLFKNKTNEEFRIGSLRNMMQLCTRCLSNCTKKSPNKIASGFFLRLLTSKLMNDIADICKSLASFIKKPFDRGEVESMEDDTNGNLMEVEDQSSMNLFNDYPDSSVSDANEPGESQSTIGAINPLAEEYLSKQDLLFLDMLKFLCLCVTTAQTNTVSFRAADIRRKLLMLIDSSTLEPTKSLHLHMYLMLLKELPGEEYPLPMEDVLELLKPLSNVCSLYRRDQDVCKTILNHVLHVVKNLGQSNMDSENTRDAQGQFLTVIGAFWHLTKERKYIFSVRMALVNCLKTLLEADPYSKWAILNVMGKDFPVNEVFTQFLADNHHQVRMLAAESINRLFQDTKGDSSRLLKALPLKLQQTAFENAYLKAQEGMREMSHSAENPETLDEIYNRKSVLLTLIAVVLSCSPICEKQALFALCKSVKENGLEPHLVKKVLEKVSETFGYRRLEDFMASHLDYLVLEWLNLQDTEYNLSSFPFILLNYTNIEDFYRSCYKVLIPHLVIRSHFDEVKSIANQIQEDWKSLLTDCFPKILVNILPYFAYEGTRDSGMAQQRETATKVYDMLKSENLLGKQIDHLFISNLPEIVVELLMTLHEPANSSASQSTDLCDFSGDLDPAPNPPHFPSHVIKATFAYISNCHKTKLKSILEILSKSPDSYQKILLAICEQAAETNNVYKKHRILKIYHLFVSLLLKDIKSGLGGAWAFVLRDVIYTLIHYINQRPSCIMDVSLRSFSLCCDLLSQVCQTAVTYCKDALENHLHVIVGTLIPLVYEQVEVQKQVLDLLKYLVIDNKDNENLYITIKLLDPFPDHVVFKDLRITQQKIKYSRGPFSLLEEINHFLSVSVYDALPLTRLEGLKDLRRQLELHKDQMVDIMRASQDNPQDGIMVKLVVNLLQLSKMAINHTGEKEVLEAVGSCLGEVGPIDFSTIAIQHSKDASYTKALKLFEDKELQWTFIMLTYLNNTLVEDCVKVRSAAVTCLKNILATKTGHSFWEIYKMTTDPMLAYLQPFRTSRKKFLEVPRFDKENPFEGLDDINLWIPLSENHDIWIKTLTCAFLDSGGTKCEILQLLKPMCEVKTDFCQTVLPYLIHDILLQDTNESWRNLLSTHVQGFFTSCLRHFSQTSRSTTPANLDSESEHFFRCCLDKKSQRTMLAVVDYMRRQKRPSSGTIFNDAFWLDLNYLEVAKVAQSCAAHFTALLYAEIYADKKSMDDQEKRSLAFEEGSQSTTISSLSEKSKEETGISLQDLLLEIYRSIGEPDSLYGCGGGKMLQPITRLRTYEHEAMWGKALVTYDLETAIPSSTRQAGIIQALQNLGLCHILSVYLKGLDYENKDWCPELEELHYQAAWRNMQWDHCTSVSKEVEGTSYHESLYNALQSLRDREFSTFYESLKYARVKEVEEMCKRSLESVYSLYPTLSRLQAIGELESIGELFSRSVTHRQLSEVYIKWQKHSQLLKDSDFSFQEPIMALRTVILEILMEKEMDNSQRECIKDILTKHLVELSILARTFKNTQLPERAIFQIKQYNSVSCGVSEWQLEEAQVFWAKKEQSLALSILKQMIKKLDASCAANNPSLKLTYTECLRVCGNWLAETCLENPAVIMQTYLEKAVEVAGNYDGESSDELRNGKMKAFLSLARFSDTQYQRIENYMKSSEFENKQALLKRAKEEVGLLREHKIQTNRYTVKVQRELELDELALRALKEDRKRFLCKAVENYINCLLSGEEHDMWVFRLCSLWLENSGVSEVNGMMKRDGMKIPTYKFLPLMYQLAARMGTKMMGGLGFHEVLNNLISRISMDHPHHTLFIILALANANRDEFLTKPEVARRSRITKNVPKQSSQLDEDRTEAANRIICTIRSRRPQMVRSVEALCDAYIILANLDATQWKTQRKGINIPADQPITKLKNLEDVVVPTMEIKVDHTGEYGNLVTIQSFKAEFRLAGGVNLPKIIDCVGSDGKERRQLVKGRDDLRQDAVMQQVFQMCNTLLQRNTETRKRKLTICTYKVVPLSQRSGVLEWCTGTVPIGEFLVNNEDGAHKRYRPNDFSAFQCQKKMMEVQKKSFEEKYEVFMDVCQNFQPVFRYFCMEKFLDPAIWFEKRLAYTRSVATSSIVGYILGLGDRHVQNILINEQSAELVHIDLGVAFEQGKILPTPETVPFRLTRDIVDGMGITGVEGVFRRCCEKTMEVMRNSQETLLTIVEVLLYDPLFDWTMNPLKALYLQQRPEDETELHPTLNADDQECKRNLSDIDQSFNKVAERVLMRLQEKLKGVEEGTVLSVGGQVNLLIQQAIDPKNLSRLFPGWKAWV
Dual specificity mitogen-activated protein kinase kinase 3 (Homo sapiens), sequence (P46734 whole entry): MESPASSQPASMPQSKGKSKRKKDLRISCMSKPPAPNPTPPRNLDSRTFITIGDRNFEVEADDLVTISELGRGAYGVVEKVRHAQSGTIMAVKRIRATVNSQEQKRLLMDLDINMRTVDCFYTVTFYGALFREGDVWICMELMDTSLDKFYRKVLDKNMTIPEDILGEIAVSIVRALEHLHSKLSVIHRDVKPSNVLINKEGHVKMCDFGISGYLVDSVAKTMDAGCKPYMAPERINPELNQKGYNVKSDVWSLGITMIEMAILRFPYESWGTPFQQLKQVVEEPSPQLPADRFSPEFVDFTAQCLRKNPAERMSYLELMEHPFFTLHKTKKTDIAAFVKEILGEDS

Q: How did the Activity [1] turn out when `Cc1cc(C)c(CNc2nc(Cl)nc3c2ncn3C2CCCC2)c(=O)[nH]1` was run?
A: The Activity was 110%.

Q: And the Activity (SW-620 [2])?
A: The Activity was 9.24%.

Q: What about the Activity [3] of the same molecule?
A: Its Activity is 92%.

Q: And the Activity [4]?
A: The Activity was 97%.

Q: And the Activity [5]?
A: The Activity was 100%.

Q: And the Activity (HCT-116 [6])?
A: Its Activity is “Active”.

Q: What about the Activity [7] of the same molecule?
A: The Activity was 113%.

Q: What about the inhibition in vivo at 80 mg/kg (HCT-116 [8]) of the same molecule?
A: Its inhibition in vivo at 80 mg/kg is 71.6%.

Q: What about the Activity [9] of the same molecule?
A: Its Activity is 106%.

Q: What about the Activity [10] of the same molecule?
A: The Activity was 102%.

Q: And the Activity [11]?
A: Its Activity is 100%.

Q: And the Activity [12]?
A: The Activity was 119%.

Q: What about the Activity (HCT-116 [13]) of the same molecule?
A: Its Activity is 17.1%.

Q: What about the IC50 (HCT-116 [14]) of the same molecule?
A: Its IC50 is 60 nM.

Q: And the Activity (Tubulin (Homo sapiens))?
A: Its Activity is “Active”.

Q: And the Activity [15]?
A: The Activity was 95.5%.

Q: And the Activity [16]?
A: The Activity was 102%.

Q: And the Activity [17]?
A: Its Activity is 114%.

Q: What about the Activity (SW-620 [18]) of the same molecule?
A: The Activity was “Active”.

Q: What about the Activity [19] of the same molecule?
A: Its Activity is 106%.

Q: What about the Activity [20] of the same molecule?
A: The Activity was 99.5%.

Q: What about the Activity [21] of the same molecule?
A: The Activity was 100%.

Q: What about the Activity [22] of the same molecule?
A: The Activity was 104%.

Q: And the Activity [23]?
A: Its Activity is 100%.

Q: What about the Activity [24] of the same molecule?
A: The Activity was 102%.
